Laboratory results as given in patent US8207122B2, “Anti-cancer bioactive peptides isolated from crude venom of Xinjiang Lycosa singoriensis” (Xiamen Bioway Biotech Co., Limited, priority 2007, dated 2012).
Where a SMILES comes first, the peptide text is derived from it. Where no end group is shown, it is not given here.

Assays:
[1] = Toxicity on a whole animal, subcutaneous injection; assay type: in vivo; conditions: 200 mg/Kg body weight, mice, within 48 hours
Hela cells = assay: Comparison of inhibitory activity of peptides on Hela cells; assay type: cell-based; conditions: for activity compared with SEQ ID NO. 1: anti-cancer activity, in words
Protocol: The above-mentioned experiments have verified the peptide has strong inhibition on the growth of cancer cells and solid tumors. In order to study the inhibition degree of difference sequences (SEQ. Nos. 1-5) of the peptide on tumor cells, comparative experiments of measuring the activity of Hela cells were conducted (as shown in FIG. 7).
Nos. 1-4, at a concentration of 40 μmol/L, the inhibition rate on Hela cells was about 90%, at 20 μmol/L, about 50%, at 5 μmol/L, only 2%. Thus, the inhibition degree of SEQ. Nos. 1-4 on Hela cells was basically equal. However, for SEQ. No. 5, at a concentration of 40 μmol/L, 20 μmol/L, and 5 μmol/L, the inhibition rate on Hela cells was more than 80%. Compared with that of SEQ. Nos. 1-4, the inhibition degree of SEQ. No. 5 had been increased by about 10 times. No. 1 and SEQ. No. 5 could dissolve 19% and 37% red cells respectively, which meant the hemolytic activity of SEQ. No. 5 was […] than that of SEQ. No. 1.

For CC[C@H](C)[C@H](NC(=O)[C@H](Cc1ccccc1)NC(=O)[C@H](CCCCN)NC(=O)[C@H](C)NC(=O)[C@@H](NC(=O)[C@H](CO)NC(=O)[C@H](CCCCN)NC(=O)[C@H](CCSC)NC(=O)[C@H](C)NC(=O)[C@H](CCCCN)NC(=O)[C@H](Cc1ccccc1)NC(=O)[C@H](Cc1c[nH]c2ccccc12)NC(=O)CNC(=O)[C@H](CCCCN)NC(=O)[C@@H](N)CCCNC(=N)N)[C@@H](C)CC)C(=O)N[C@@H](C)C(=O)N[C@@H](CCCCN)C(=O)N[C@@H](CCC(=O)O)C(=O)N[C@@H](CCCCN)C(=O)N[C@@H](CC(C)C)C(=O)N[C@@H](CCCCN)C(=O)N[C@@H](CCC(=O)O)C(=O)N[C@@H](Cc1c[nH]cn1)C(=O)N[C@@H](CC(C)C)C(N)=O [SEQ. No. 1] (H-RKGWFKAMKSIAKFIAKEKLKEHL-NH2), the toxic reaction [1] was “no obvious toxic reaction was observed”.

In the case of CC[C@H](C)[C@H](NC(=O)[C@H](Cc1ccccc1)NC(=O)[C@H](CCCCN)NC(=O)[C@H](C)NC(=O)[C@@H](NC(=O)[C@H](CO)NC(=O)[C@H](CCCCN)NC(=O)[C@H](CCSC)NC(=O)[C@H](C)NC(=O)[C@@H](N)CCCCN)[C@@H](C)CC)C(=O)N[C@@H](C)C(=O)N[C@@H](CCCCN)C(N)=O [SEQ. No. 5, Lys Ala Met Lys Ser Ile Ala Lys Phe Ile Ala Lys-NH2] (H-KAMKSIAKFIAK-NH2), the “inhibition rate on Hela cells” value (Hela cells; 5 μmol/L) is reported as “more than 80%”, the “inhibition rate on Hela cells” value (Hela cells; 20 μmol/L) is reported as “more than 80%” and the “inhibition rate on Hela cells” value (Hela cells; 40 μmol/L) is reported as “more than 80%”.

For “Lys Gly Trp Phe Lys Ala Met Lys Ser Ile Ala Lys Phe Ile Ala Lys Glu Lys Leu Lys Glu His Leu-NH2 (KGWFKAMKSIAKFIAKEKLKEHL-NH2) [SEQ ID NO. 3]”, the “activity compared with SEQ ID NO. 1” value (Hela cells) was “same activity”.

For “Lys Gly Trp Phe Lys Ala Met Lys Ser Ile Ala Lys Phe Ile Ala Lys Glu Lys Met Lys Glu His Leu-NH2 (KGWFKAMKSIAKFIAKEKMKEHL-NH2; listed as Lycosa singoriensis) [SEQ ID NO. 2]”, the “activity compared with SEQ ID NO. 1” value (Hela cells) was “same activity”.

In the case of WFKAMKSIAKFIAKEKLK [SEQ ID NO. 4], the “activity compared with SEQ ID NO. 1” value (Hela cells) is reported as “same activity”.
